Measured values as given in US5141957A, “1,4-bis-(amino-hydroxyalkylamino)-anthraquinones for inhibiting protein kinase C” (Sphinx Pharmaceuticals Corporation, priority 1990, dated 1992).
Where a name gives a salt, the structure may show the parent alone.

Legend:
[1] = test system: CEM cells; assay: Human tumor cell growth inhibition (3H-thymidine incorporation), CEM; type: cell-based; details: CCRF-CEM, inhibition of 3H-thymidine incorporation, 18-24 hrs + 4 hrs
Description: (§1) MCF-7 a human breast tumor cell line and MCF-7/ADR an adriamycin resistant line of MCF-7 cells were obtained from the National Cancer Institute, Frederick, Md. CEM cells (ATCC accession number CCL 119) were obtained from the American Type Culture Collection, Rockville, Md. Human tumor cells are trypsinized (0.05% trypsin, GIBCO), counted with a hemacytometer and seeded at a concentration of 10,000 cells/well in a 96 well microtiter plate. After allowing cells to attach to the surface overnight, the culture medium is aspirated and replaced with 100 μl of fresh medium. Test agents are diluted to determine dose response at 2× final concentration and added in quadruplicate at 100 μl/well to bring the total volume of each well to 200 μl . The microtiter plate is then incubated at 37° C. 5% CO2 overnight (18-24 hrs) before ^3 H-thymidine is added at a concentration of 0.5 μCi/well in 50 μl culture medium. The plate is incubated again for 4 hrs under the same conditions as above. Supernatant is then aspirated and 50μl trypsin (0.05%, GIBCO) is added to each well. Cells are checked microscopically to determine detachment from surfaces, and plates are then harvested with a cell harvester (PHD, Cambridge Technology, Inc.) Filter papers corresponding to wells are placed in scintillation vials and counted to determine the amount of ^3 H-thymidine incorporated by the cells. […]

[2] = test system: Proliferating keratinocytes (NHEK cells); assay: Human keratinocyte inhibition (3H-thymidine incorporation); type: cell-based; details: second passage, inhibition of 3H-thymidine incorporation
Method: as §1, with “Human” for “MCF-7 a human breast tumor cell line and MCF-7/ADR an adriamycin resistant line of MCF-7 cells were obtained from the National Cancer Institute, Frederick, Md. CEM cells (ATCC accession number CCL 119) were obtained from the American Type Culture Collection, Rockville, Md. Human”, “Supernatant is then aspirated and 50μl trypsin (0.05%, GIBCO) is added to each well.” left out
Proliferating keratinocytes (NHEK cells purchased from Clonetics, Inc., San Diego, Calif.) in second passage were grown in Keratinocyte Growth Medium (KGM) (Clonetics, Inc.) Cells are trypsinized (0.025% trypsin, Clonetics), counted with a hemacytometer (Scientific Products), and seeded at a concentration of 2,500 cells/well in a 96 well microtiter plate. […]

[3] = biological target: Protein kinase C (PKC); assay: Protein kinase C inhibition (histone H1 phosphorylation, 32P-ATP); type: biochemical; details: histone H1 substrate; enzyme from rat brain; 20 μM ATP; pH 7.5; 10 min
Method: The protein kinase C (PKC) assay is designed to duplicated the in vivo conditions required for protein kinase C function. Therefore, pH, salt and cofactor concentrations are similar to physiologic levels. Histone Hl (lysine rich) is used in the assay as the phosphorylation acceptor protein because it is readily available and serves as a good substrate for protein kinase C. The enzyme is prepared from rat brain and is purified to apparent homogeneity as determined by a single band on silver stained SDS-polyacrylamide. Studies on the mechanism of regulation of protein kinase C by phospholipids, DAG and Ca^+2 have been hampered by the physical properties of the lipid cofactors. In the screening assay, phosphatidylserine (PS) and DAG are co-sonicated to form unilamellar and multilamellar vesicles. The concentration of lipids in the assay are suboptimal to maximize the detection potential of the assay for inhibitors. Potential inhibitor compounds are added to the assay in dimethylsulfoxide at three concentrations to give final inhibitor concentrations of 4.3, 43 and 218 μM, respectively. The assay is started with the addition of enzyme and stopped after 10 min by the addition of 25 % trichloroacetic acid (TCA) and 1.0 mg/ml bovine serum albumin (BSA). […] The amount of phosphorylation is determined by the radioactivity measured in a scintillation counter. […]

[4] = test system: MCF-7/ADR adriamycin resistant line of MCF-7 cells; assay: Human tumor cell growth inhibition (3H-thymidine incorporation), MCF-7/ADR; type: cell-based; details: NCI/ADR-RES, inhibition of 3H-thymidine incorporation, 18-24 hrs + 4 hrs
Description: as §1

[5] = test system: PMA-stimulated neutrophils; assay: Neutrophil superoxide anion (O2-) release assay; type: cell-based; details: Homo sapiens, 0.5 h, 37° C., 30 min, cytochrome c reduction at 550 nm, read-out: IC50, PMA-stimulated O2- production (respiratory burst)
Method: Neutrophils are isolated form whole blood collected from human volunteers. All reagent materials are obtained from Sigma Chemical Company with the exception of isotonic saline (Travenol Laboratories, Inc., Deerfield, Ill.) and lymphocyte separation medium (Organon Teknika, Durham, N.C.).
Whole blood is drawn and mixed with sodium heparin (final conc. 10 units/ml) to prevent clotting. An equal volume of dextran (3.0%) in isotonic saline is added, mixed, and allowed to settle for 30 min to bind red blood cells (RBC). Supernatant is removed, underlayered with lymphocyte separation medium and centrifuged for 40 min at 400 ×g in a centrifuge (Beckman GPR, Norcross, Ga.). The pellet is alternately resuspended in 0.2% and 1.6% NaCl to lyse RBCs before washing with Hank's Balanced Salt Solution (HBSS). […]
The neutrophil cell concentration is adjusted to 2×10^6 cells/ml with HBSS before adding 0.8 ml cells to 12×75 mm polypropylene test tubes (Fisher Scientific). […] Optical density (OD) of cytochrome c is read in a spectrophotometer (Shimadzu) at 550 nm. […] Reducing cytochrome c increases its absorbance, and the change in OD of cytochrome c is proportional to the amount of O2^- produced by PMA stimulation. […] Inhibition is expressed as IC50 μM and is the amount of test compound that will inhibit fifty per cent of the PMA-stimulated respiratory outburst, i.e. O2^- production.

[6] = test system: MCF-7 human breast tumor cell line; assay: Human tumor cell growth inhibition (3H-thymidine incorporation), MCF-7; type: cell-based; details: MCF7, inhibition of 3H-thymidine incorporation, 18-24 hrs + 4 hrs
Description: as §1

| SMILES | IC50 [1] [µM] | IC50 [2] [µM] | IC50 [3] [µM] | IC50 [4] [µM] | IC50 [5] [µM] | IC50 [6] [µM] |
| --- | --- | --- | --- | --- | --- | --- |
| O=C1c2ccccc2C(=O)c2c(NCC(O)CNCc3ccccc3)ccc(NCC(O)CNCc3ccccc3)c21 (stereo not shown) [Compound 1b, 1,4-Bis-(3-Benzylamino-2-Hydroxypropylamino)-9, 10 anthracenedione. Hydrochloride salt] | 2.7 | 4 | 43 | 17 | 3.9 | 2.7 |
| CCCNCC(O)CNc1ccc(NCC(O)CNCCC)c2c1C(=O)c1ccccc1C2=O (stereo not shown) [Compound 1a, 1,4-Bis-(3-Propylamino-2-Hydroxypropylamino)-9, 10 anthracenedione hydrochloride] | 5.6 |  | 199 | > 25 |  | 2.4 |
